Laboratory results taken from patent US5714155A, “Ethylenediamine derivative in a cosmetic or dermatological composition, and composition containing in particular a product having an irritant side effect” (Societe L'oreal S.A., priority 1994, dated 1998).

Tested on: contraction of guinea pig ileum by substance P
Experiment: Antagonism of the in vitro contraction of guinea pig ileum by substance P
Type: cell-based
Conditions: for substance P antagonism (conclusion of the tests): conclusion from NK1 binding and guinea pig ileum tests
Method: b). Model of antagonism of the in vitro contraction of guinea pig ileum by substance P (10 nM) according to the technique described by Dion et al., Life Sci. 41: 2269-78 (1987) and Patacchini et al., Eur. J. Pharmacol. 215: 93-8 (1992).

SMILES | substance P antagonism (conclusion of the tests) | inhibition at 1 µM (Cavia porcellus, 1 μM, substance P 10 nM) | inhibition at 10 µM (Cavia porcellus, 10 μM, substance P 10 nM) | inhibition at 100 µM (Cavia porcellus, 100 μM, substance P 10 nM)
COc1cc(CNCCNCc2cc(OC)cc(OC)c2)cc(OC)c1 [Example 2, N,N'-bis(3,5-dimethoxybenzyl)ethylenediamine] | substance P antagonists |  |  | 
Cc1cc(C)cc(CNCCNCc2cc(C)cc(C)c2)c1 [Example 1, N,N'-bis(3,5-dimethylbenzyl)ethylenediamine] | substance P antagonists | -24% | -92% | -100%
